Assays:
[1] = target: Death-associated protein kinase 3 (Homo sapiens) (UniProt O43293); experiment: Inhibition of human recombinant DAPK3 at 500 nM in presence of ATP by radiometric assay relative to control
[2] = target: T1, Serine/threonine-protein kinase 3 (Homo sapiens) (UniProt Q13188); experiment: Inhibition of human recombinant MST2 at 500 nM related to control ULK1
T1 sequence (whole entry): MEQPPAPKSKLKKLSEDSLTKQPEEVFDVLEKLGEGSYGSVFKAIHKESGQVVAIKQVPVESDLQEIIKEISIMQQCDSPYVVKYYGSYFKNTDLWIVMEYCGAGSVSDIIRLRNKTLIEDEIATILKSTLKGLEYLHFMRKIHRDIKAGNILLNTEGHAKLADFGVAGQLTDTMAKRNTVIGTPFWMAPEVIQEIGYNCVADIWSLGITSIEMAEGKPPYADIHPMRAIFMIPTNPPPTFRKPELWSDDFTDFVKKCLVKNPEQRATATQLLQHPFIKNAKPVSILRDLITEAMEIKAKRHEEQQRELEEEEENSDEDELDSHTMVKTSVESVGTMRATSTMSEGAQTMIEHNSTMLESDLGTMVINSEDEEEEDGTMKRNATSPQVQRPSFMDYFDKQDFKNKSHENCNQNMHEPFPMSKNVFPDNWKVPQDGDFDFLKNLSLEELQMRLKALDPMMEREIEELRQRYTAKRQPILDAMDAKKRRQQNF

[3] = target: T2, Protein kinase C epsilon type (Homo sapiens) (UniProt Q02156); experiment: Inhibition of human recombinant PKCe at 500 nM related to control ULK1
T2 sequence (whole entry): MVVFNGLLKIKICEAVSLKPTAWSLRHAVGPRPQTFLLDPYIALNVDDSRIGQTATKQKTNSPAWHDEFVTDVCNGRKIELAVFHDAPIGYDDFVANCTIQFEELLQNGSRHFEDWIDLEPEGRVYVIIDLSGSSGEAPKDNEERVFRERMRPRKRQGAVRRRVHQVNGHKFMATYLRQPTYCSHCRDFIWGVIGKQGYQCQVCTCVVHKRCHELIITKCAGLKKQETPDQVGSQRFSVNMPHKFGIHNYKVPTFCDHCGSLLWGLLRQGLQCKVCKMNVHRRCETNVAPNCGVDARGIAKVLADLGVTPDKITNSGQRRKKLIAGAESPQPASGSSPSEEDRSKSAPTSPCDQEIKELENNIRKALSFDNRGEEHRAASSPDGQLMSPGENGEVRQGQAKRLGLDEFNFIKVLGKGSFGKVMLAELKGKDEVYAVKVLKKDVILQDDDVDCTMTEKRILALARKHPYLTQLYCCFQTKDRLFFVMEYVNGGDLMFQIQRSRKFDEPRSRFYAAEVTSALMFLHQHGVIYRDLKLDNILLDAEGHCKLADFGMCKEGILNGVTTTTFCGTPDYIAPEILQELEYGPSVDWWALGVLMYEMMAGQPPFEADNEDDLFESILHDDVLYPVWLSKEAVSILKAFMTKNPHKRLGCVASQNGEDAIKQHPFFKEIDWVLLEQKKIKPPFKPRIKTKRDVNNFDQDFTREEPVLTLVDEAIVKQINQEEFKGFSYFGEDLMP

[4] = target: Cyclin-dependent kinase 5 (Homo sapiens) (UniProt Q00535); experiment: Inhibition of human recombinant CDK5 at 15 nM in presence of ATP by radiometric assay relative to control
[5] = target: Dual specificity protein kinase CLK4 (Homo sapiens) (UniProt Q9HAZ1); experiment: Inhibition of human recombinant CLK4 at 15 nM in presence of ATP by radiometric assay relative to control
[6] = target: T3, Ephrin type-B receptor 3 (Homo sapiens) (UniProt P54753); experiment: Inhibition of human recombinant EphB3 at 15 nM related to control ULK1
T3 sequence (whole entry): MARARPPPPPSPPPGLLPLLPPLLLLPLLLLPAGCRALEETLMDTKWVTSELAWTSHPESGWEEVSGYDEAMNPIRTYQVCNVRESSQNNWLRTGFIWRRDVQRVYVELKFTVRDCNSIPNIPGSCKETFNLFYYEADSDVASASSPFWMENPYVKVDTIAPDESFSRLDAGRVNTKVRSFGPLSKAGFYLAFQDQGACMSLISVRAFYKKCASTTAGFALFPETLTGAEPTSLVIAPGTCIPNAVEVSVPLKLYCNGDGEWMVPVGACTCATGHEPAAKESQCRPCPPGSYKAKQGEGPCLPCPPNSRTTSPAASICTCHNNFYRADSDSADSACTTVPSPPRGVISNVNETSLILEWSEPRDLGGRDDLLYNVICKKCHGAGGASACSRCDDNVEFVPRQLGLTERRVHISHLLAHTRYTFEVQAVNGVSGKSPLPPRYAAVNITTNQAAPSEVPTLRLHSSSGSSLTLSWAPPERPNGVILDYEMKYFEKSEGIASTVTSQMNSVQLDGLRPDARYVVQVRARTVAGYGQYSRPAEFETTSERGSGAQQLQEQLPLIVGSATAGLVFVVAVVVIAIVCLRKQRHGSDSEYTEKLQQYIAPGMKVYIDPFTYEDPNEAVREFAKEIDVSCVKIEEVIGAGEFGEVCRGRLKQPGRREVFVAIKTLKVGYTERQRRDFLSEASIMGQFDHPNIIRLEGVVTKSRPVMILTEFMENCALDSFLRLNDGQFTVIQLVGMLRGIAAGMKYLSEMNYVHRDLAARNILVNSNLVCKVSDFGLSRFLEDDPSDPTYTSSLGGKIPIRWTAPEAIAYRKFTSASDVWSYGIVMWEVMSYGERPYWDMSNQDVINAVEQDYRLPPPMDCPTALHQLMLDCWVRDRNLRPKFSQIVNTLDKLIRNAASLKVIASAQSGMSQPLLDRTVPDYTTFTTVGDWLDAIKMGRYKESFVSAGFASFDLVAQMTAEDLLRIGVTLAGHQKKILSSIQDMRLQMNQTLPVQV

[7] = target: Serine/threonine-protein kinase SIK1 (Homo sapiens) (UniProt P57059); experiment: Inhibition of human recombinant SIK at 15 nM related to control ULK1
[8] = target: T4, Testis-specific serine/threonine-protein kinase 4 (Homo sapiens) (UniProt Q6SA08); experiment: Inhibition of human recombinant TSSK4 at 40 nM related to control ULK1
T4 sequence (whole entry): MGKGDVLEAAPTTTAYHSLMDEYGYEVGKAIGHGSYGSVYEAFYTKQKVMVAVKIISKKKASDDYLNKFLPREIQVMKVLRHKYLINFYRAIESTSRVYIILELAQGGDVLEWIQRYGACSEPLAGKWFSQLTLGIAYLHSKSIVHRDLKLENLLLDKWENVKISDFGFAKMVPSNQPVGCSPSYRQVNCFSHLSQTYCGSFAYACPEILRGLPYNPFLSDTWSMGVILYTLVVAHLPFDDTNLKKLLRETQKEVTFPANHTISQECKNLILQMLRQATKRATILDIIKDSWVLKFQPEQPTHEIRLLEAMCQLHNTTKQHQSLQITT

Dual specificity protein kinase CLK4 (Homo sapiens), sequence (Q9HAZ1 whole entry, looked up): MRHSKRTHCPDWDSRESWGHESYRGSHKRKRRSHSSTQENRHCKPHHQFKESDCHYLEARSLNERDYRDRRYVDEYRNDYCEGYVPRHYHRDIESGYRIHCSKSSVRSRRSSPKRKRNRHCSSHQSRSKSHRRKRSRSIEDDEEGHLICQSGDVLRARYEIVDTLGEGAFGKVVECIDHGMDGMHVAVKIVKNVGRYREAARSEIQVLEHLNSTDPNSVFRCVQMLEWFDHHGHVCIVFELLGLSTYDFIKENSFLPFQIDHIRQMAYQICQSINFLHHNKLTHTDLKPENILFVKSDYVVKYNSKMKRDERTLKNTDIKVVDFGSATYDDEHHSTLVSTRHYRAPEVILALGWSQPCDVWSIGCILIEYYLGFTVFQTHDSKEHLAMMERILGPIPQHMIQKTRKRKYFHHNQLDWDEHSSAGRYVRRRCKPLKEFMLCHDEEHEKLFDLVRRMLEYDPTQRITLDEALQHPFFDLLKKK
Cyclin-dependent kinase 5 (Homo sapiens), sequence (Q00535 whole entry, looked up): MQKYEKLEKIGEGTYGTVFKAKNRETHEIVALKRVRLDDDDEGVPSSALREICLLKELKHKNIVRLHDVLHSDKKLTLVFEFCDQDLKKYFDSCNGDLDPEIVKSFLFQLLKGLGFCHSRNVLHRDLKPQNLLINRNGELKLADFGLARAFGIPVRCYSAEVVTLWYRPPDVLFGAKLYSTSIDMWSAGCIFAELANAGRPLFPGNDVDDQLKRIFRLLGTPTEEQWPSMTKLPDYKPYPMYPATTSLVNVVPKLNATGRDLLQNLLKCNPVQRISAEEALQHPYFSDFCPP
Serine/threonine-protein kinase SIK1 (Homo sapiens), sequence (P57059 whole entry): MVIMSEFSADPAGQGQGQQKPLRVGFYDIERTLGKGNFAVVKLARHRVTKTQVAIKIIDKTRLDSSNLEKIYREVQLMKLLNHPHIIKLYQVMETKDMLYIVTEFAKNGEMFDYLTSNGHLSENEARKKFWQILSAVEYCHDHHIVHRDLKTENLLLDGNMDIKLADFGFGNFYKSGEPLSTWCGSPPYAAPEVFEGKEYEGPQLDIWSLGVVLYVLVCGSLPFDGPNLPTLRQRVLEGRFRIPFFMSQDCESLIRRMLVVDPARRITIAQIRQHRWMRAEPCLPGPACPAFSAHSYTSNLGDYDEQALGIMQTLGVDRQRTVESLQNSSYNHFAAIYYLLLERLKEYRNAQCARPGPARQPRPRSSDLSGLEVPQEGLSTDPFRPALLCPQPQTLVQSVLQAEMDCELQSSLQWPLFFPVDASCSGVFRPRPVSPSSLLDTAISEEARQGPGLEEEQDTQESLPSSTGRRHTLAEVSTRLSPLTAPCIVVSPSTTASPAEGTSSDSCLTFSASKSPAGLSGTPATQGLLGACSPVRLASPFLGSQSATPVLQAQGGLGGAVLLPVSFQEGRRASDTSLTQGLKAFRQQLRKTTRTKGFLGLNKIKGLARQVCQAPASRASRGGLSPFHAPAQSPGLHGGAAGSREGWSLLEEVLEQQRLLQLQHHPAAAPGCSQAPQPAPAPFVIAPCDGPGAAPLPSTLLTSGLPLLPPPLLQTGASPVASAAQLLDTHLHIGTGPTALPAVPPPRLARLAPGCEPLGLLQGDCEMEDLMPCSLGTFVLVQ
Death-associated protein kinase 3 (Homo sapiens), sequence (O43293 whole entry, looked up): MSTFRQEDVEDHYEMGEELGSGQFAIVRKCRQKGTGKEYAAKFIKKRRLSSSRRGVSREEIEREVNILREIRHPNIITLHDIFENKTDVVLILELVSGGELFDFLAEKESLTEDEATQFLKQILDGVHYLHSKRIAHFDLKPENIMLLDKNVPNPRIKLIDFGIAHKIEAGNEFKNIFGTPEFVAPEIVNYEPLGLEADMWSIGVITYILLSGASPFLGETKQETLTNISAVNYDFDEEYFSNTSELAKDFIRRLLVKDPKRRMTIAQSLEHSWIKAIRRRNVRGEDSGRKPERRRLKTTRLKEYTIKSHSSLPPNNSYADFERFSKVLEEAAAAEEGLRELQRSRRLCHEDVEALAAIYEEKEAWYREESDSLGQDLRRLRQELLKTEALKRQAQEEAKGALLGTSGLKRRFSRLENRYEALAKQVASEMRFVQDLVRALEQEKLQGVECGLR

SMILES: CNC(=O)c1ccccc1Oc1nc(Nc2cc(OC)c(OC)c(OC)c2)ncc1Br
- inhibition [1]: 10%
- fold change (FC) [2]: 0
- fold change (FC) [3]: 0

SMILES: CC(C)[C@H](NC(=O)c1cc(-c2cnn3cc(-c4ccc(OCCN5CCCCC5)cc4)cnc23)cs1)C(F)(F)F
- inhibition [4]: 23%
- inhibition [5]: 83%
- fold change (FC) [6]: 0
- fold change (FC) [7]: 0.84

SMILES: O=C(N[C@@H](C1CC1)C(F)(F)F)c1cc(-c2cnn3cc(-c4ccc(F)cc4)cnc23)cs1
- fold change (FC) [8]: 0
